{
  "source": "patent US20180264124A1",
  "about": "“DRUG COMPLEX” (Shimadzu Corporation, priority 2015, published 2018)",
  "system": "HUVEC",
  "test": "HUVEC growth inhibition test (WST-1 assay)",
  "settings": "25 ng/mL VEGF, 24 hours",
  "note": "Ends that are not written are not given here.",
  "data": [
    {"substance": "YT1-Cem: non-VEGF-binding helix-loop-helix peptide YT1-Cys (SEQ ID NO: 18) reacted with CemCH2-S-TNB; control complex (CAELAALEAELAALEGGGGGGGKLAALKAKLAALKA; also: Cem conjugated via the Cys (CemCH2-S-TNB reaction))", "values": [
      {"measurement": "cell growth inhibition", "result": "did not inhibit cell growth"}
    ]}
  ]
}
